In turn, `*C#Cc1ccccc1C#C[SiH](*)c1ccccc1` (repeat unit) gave a glass transition temperature of 71.00 °C.
As for `*C(=O)Nc1c(C)cc(Cc2cc(C)c(NC(=O)c3ccc4c(c3)C(=O)N(c3ccc(/N=N/c5ccc(OC(F)(F)F)cc5)c(N5C(=O)c6ccc(*)cc6C5=O)c3)C4=O)c(C)c2)cc1C` (repeat unit), the figure is 278.00 °C.
As for `*C(=O)Nc1ccc(/N=N/c2ccc([N+](=O)[O-])cc2)c(NC(=O)c2ccc3c(c2)C(=O)N(c2c(C)cc(Cc4cc(C)c(N5C(=O)c6ccc(*)cc6C5=O)c(C)c4)cc2C)C3=O)c1` (repeat unit), the figure is 264.00 °C; as for `*C(=O)OCC(C)(C)CS(=O)(=O)CC(C)(C)COC(=O)N1CC(C)N(*)CC1C` (repeat unit), 85.00 °C.
The same measure for `*CC(=O)NCCCCCCNC(=O)Cc1ccc(O*)cc1` (repeat unit): 69.50 °C.
For the molecule `*CC(C)(C)CS*` (repeat unit), the glass transition temperature is -49.30 °C.
As for `*CC(C)(CC)CS*` (repeat unit), the figure is -50.00 °C; as for `*CC(C)CO*` (repeat unit), -55.00 °C.
As for `*CC(CC)(CC)CS*` (repeat unit), the figure is -36.2 °C; as for `*CC(CO*)(CS(=O)(=O)C(C)C)CS(=O)(=O)C(C)C` (repeat unit), 91.00 °C; as for `*CC(CO*)(CS(=O)(=O)CCC)CS(=O)(=O)CCC` (repeat unit), 71.00 °C.
As for `*CC(CO*)(CS(=O)(=O)CCCC)CS(=O)(=O)CCCC` (repeat unit), the figure is 66.00 °C.
For `*CC(CO*)(CS(C)(=O)=O)CS(C)(=O)=O` (repeat unit), the glass transition temperature was found to be 126.00 °C.
The same measure for `*CC(CO*)(CSC)CSC` (repeat unit): -6.00 °C; for `*CC(CO*)(CSCC)CSCC` (repeat unit): -32.00 °C.
Regarding `*CC(CO*)(CSCCCCC)CSCCCCC` (repeat unit), the glass transition temperature is -33.00 °C.
The same measure for `*CC(CO*)C(C)(C)C` (repeat unit): -4.00 °C.
`*CC(COc1c(Cl)cc(C(C)(C)c2cc(Cl)c(O*)c(Cl)c2)cc1Cl)OC(C)=O` (repeat unit) displayed a glass transition temperature of 100.00 °C.
Molecule `*CC(COc1ccc(C(C)(c2ccccc2)c2ccc(O*)cc2)cc1)OC(C)=O` (repeat unit) had a glass transition temperature of 110.00 °C.
The same measure for `*CC(O)COc1ccc(Cc2ccc(O*)cc2)cc1` (repeat unit): 143.20 °C; for `*CC(OO*)c1ccc(C)cc1` (repeat unit): 4.60 °C; for `*CCCCCCNC(=O)Cc1ccc(CC(=O)N*)cc1` (repeat unit): 95.00 °C.
The same measure for `*CCCCCCOC(=O)c1cc(OCCCCCCOc2ccc(/N=N/c3ccc(C#N)cc3)cc2)cc(C(=O)OCCCCCCN2C(=O)c3ccc(-c4ccc5c(c4)C(=O)N(*)C5=O)cc3C2=O)c1` (repeat unit): 93.00 °C; for `*CCCCCCOC(=O)c1cc(OCCCCCCOc2ccc(/N=N/c3ccc(C#N)cc3)cc2)cc(C(=O)OCCCCCCN2C(=O)c3ccc(Oc4ccc5c(c4)C(=O)N(*)C5=O)cc3C2=O)c1` (repeat unit): 61.00 °C.
As for `*CCCCCNC(=O)Cc1ccc(C(=O)N*)cc1` (repeat unit), the figure is 103.00 °C; as for `*CCCCNC(=O)Cc1ccc(C(=O)N*)cc1` (repeat unit), 84.00 °C; as for `*CCOCC(=O)O*` (repeat unit), -12.60 °C.
The molecule `*CCSSCCOCO*` (repeat unit) showed a glass transition temperature of -57.50 °C.
As for `*C[Si](*)(C)CCCCCC` (repeat unit), the figure is -77.60 °C; as for `*C[Si](*)(C)CCCn1c2ccccc2c2ccccc21` (repeat unit), 71.20 °C.
The same measure for `*C[Si](*)(CCC)CCC` (repeat unit): -41.00 °C; for `*C[Si](*)(CCCCCC)CCCCCC` (repeat unit): -56.00 °C.
Take `*C[Si](C)(C)[Si](C)(C)[Si](C)(C)[Si](*)(C)C` (repeat unit): the glass transition temperature is -68.00 °C.
`*Cc1cc(C23CC4CC(CC(C4)C2)C3)cc(CN(*)C)c1O` (repeat unit) returned a glass transition temperature of 188.80 °C.
As for `*Cc1cc2cc(C(=O)Nc3ccc(-c4ccc(NC(=O)c5cc6cc(*)c(OC(=O)COc7ccc8ccc(=O)oc8c7)cc6oc5=O)cc4)cc3)c(=O)oc2cc1OC(=O)COc1ccc2ccc(=O)oc2c1` (repeat unit), the figure is 248.00 °C.
As for `*Cc1cc2cc(C(=O)Nc3ccc(Cc4ccc(NC(=O)c5cc6cc(*)c(OC(=O)COc7ccc8ccc(=O)oc8c7)cc6oc5=O)cc4)cc3)c(=O)oc2cc1OC(=O)COc1ccc2ccc(=O)oc2c1` (repeat unit), the figure is 221.00 °C; as for `*Cc1cc2cc(C(=O)Nc3cccc(NC(=O)c4cc5cc(*)c(OC(=O)COc6ccc7ccc(=O)oc7c6)cc5oc4=O)c3)c(=O)oc2cc1OC(=O)COc1ccc2ccc(=O)oc2c1` (repeat unit), 240.00 °C.
As for `*Cc1ccc(CSSS*)cc1` (repeat unit), the figure is 8.00 °C.
As for `*Cc1ccc(C[n+]2ccc(-c3cc[n+](*)cc3)cc2)cc1` (repeat unit), the glass transition temperature came to 95.00 °C.
The same measure for `*Cc1ccccc1CSS*` (repeat unit): 39.00 °C; for `*Cc1ccccc1C[n+]1ccc(-c2cc[n+](*)cc2)cc1` (repeat unit): 70.50 °C; for `*Oc1ccc(CC(NC(=O)CCc2ccc(OC(=O)CCC(*)=O)cc2)C(=O)OC)cc1` (repeat unit): 91.50 °C.
As for `*Oc1ccc(CC(NC(=O)CCc2ccc(OC(=O)CCC(*)=O)cc2)C(=O)OCC(C)C)cc1` (repeat unit), the figure is 75.00 °C.
As for `*Oc1ccc(CC(NC(=O)CCc2ccc(OC(=O)CCC(*)=O)cc2)C(=O)OCCCC)cc1` (repeat unit), the figure is 67.00 °C; as for `*Oc1ccc(CC(NC(=O)CCc2ccc(OC(=O)CCC(*)=O)cc2)C(=O)OCCCCCC)cc1` (repeat unit), 53.00 °C; as for `*Oc1ccc(CC(NC(=O)CCc2ccc(OC(=O)CCC(*)=O)cc2)C(=O)OCCOCCOCC)cc1` (repeat unit), 34.00 °C.
Take `*Oc1ccc(CC(NC(=O)Cc2ccc(OC(=O)CCC(*)=O)cc2)C(=O)OCCCCCCCC)cc1` (repeat unit): the glass transition temperature was found to be 51.00 °C.
Consider `*Oc1ccc(S(=O)(=O)c2ccc(Oc3c(C)cc(Cc4cc(C)c(*)c(C)c4)cc3C)cc2)cc1` (repeat unit), for which the glass transition temperature turned out to be 232.00 °C.
The same measure for `*c1c(C)cc(-c2cc(C)c(N3C(=O)c4cccc(Oc5c(C)cc(Cc6cc(C)c(Oc7cccc8c7C(=O)N(*)C8=O)c(C)c6)cc5C)c4C3=O)c(C)c2)cc1C` (repeat unit): 276.00 °C; for `*c1c(C)cc(Cc2cc(C)c(N3C(=O)c4ccc(Oc5ccc(C(C)(C)c6ccc(Oc7ccc8c(c7)C(=O)N(*)C8=O)cc6)cc5)cc4C3=O)c(C)c2)cc1C` (repeat unit): 247.00 °C.
As for `*c1c(C)cc(Cc2cc(C)c(N3C(=O)c4cccc(Oc5c(C)cc(Cc6cc(C)c(Oc7cccc8c7C(=O)N(*)C8=O)c(C)c6)cc5C)c4C3=O)c(C)c2)cc1C` (repeat unit), the figure is 243.00 °C; as for `*c1c(C)cc(Cc2cc(C)c(N3C(=O)c4cccc(Oc5ccc(C(C)(C)c6ccc(Oc7cccc8c7C(=O)N(*)C8=O)cc6)cc5)c4C3=O)c(C)c2)cc1C` (repeat unit), 223.00 °C; as for `*c1ccc(CC(=O)Nc2ccc(Oc3ccc(NC(=O)Cc4ccc(-c5sc(*)c(-c6ccccc6)c5-c5ccccc5)cc4)cc3)cc2)cc1` (repeat unit), 226.00 °C.
As for `*c1ccc(CC(=O)Nc2cccc3c(NC(=O)Cc4ccc(-c5sc(*)c(-c6ccccc6)c5-c5ccccc5)cc4)cccc23)cc1` (repeat unit), the figure is 255.00 °C.
In the case of `*c1ccc(Cc2ccc(N3C(=O)c4ccc(-c5ccc6c(c5)C(=O)N(*)C6=O)cc4C3=O)c(C(C)(C)C)c2)cc1C(C)(C)C` (repeat unit), the glass transition temperature was 324.00 °C.
For `*c1ccc(Cc2ccc(N3C(=O)c4cccc5c(N6CCC(CCCC7CCN(c8ccc9c%10c(cccc8%10)C(=O)N(*)C9=O)CC7)CC6)ccc(c45)C3=O)c(C(C)(C)C)c2)cc1C(C)(C)C` (repeat unit), the glass transition temperature was 202.70 °C.
The same measure for `*c1ccc(NC(=O)Cc2ccc(-c3sc(-c4ccc(CC(=O)Nc5ccc(-c6sc(*)c(-c7ccccc7)c6-c6ccccc6)cc5)cc4)c(-c4ccccc4)c3-c3ccccc3)cc2)cc1` (repeat unit): 273.00 °C.
For the molecule `*c1ccc(Oc2ccc(-c3ccc(Oc4ccc(N5C(=O)c6cccc(Oc7c(C)cc(Cc8cc(C)c(Oc9cccc%10c9C(=O)N(*)C%10=O)c(C)c8)cc7C)c6C5=O)cc4)cc3)cc2)cc1` (repeat unit), the glass transition temperature came to 259.00 °C.
For `*c1ccc(Oc2ccc(N3C(=O)c4ccc(Oc5c(C)cc(Cc6cc(C)c(Oc7ccc8c(c7)C(=O)N(*)C8=O)c(C)c6)cc5C)cc4C3=O)cc2)cc1` (repeat unit), the glass transition temperature is 266.00 °C.
As for `*c1ccc2c(c1)C(=O)N(c1ccc(OC(CCCCCC)COc3ccc(N4C(=O)c5ccc(C(*)(C(F)(F)F)C(F)(F)F)cc5C4=O)cc3)cc1)C2=O` (repeat unit), the figure is 182.00 °C; as for `*c1ccc2c(c1)C(=O)N(c1ccc(Oc3c(C)cc(Cc4cc(C)c(Oc5ccc(N6C(=O)c7ccc(C(*)(C(F)(F)F)C(F)(F)F)cc7C6=O)cc5)c(C)c4)cc3C)cc1)C2=O` (repeat unit), 298.00 °C.
The same measure for `*c1cccc(N2C(=O)c3ccc(Oc4c(C)cc(Cc5cc(C)c(Oc6ccc7c(c6)C(=O)N(*)C7=O)c(C)c5)cc4C)cc3C2=O)c1` (repeat unit): 245.00 °C.
